According to patent US9642870B2, “Composition for preventing or alleviating atopic dermatitis comprising immunosuppressant and transglutaminase 2 inhibitor” (Dongguk University Industry-Academic Cooperation Foundation, priority 2011, dated 2017):

What was measured:
[1] = tested on: severe atopic dermatitis patients; test: Clinical test: objective SCORAD index in atopic dermatitis patients; conditions: FIG. 17
Procedure: During the experiments, the vital signs, that is, a blood pressure and a pulse, were measured after patients sat for 3 minutes to rest.
Thereafter, the SCORAD indexes were measured. […] The SCORAD indexes were measured before dosage and at points of time at which the dosage methods were changed. It was assumed that an area of lesions was set to 0 to 100% according to the rule of nine, the SCORAD index was calculated as the sum (0-103) of an objective SCORAD index and a subjective SCORAD index. Here, the objective SCORAD index was calculated by dividing the severity of atopic dermatitis, which was divided into 6 categories of erythema, edema/papulation, oozing/crusts, excoriations, lichenification and skin dryness, by 0 to 3, summing up the calculated values, and adding the sum of the calculated values to ⅕ of the area of the lesions, and the subjective SCORAD index was obtained by setting each of pruritus and dyssomnia during waking hours to analog scales 0 to 10 (European Task Force on Atopic Dermatitis, 1993). […] Therefore, only the objective SCORAD index was evaluated in this Example.
The changes in the SCORAD indexes of the 10 patients were plotted on one graph.
Then, average lines plotted from the results of all the patients were drawn, and compared.

[2] = tested on: IgE; test: Total serum IgE (ELISA); type: in vivo, mice; conditions: administered alone, compared with the control
Procedure: Since the major symptoms of atopic dermatitis were associated with strong Th2 immune response, IgE was produced at an excessive amount. Therefore, either glucosamine or tacrolimus was administered alone to the atopy-induced mice, or glucosamine and tacrolimus were administered in combination to measure a level of IgE in the serum. After one week had elapsed after the final administration, sera were obtained from the mice, and a total level of IgE was measured using an ELISA kit (Yamasa, Tokyo, Japan).

[3] = in vivo
[4] = tested on: IFN-g, IL-4, IL-5; test: Immunosuppressive effects of immunosuppressants administered alone (IFN-g, IL-4, IL-5 concentrations); type: cell-based; conditions: FIGS. 24 to 26
Text: Further, immunosuppressive effects according to the kinds of immunosuppressants were further confirmed through experiments conducted to determine a proper dosage concentration.

[5] = Minimum and maximum doses from experiments conducted at a cell level; type: cell-based; conditions: no difference in inhibition level

| Compound | change in SCORAD indexes ([1]; glucosamine administered alone, November 10 to November 24) | therapeutic effect (SCORAD indexes), summary ([1]; single versus combined administration) | total level of IgE in the serum [2] | blood glucosamine concentrations, animals versus humans [3] | immunosuppressive effect (changes in concentrations of IFN-g, IL-4, IL-5) [4] | dose required relative to cyclosporine [5] |
| --- | --- | --- | --- | --- | --- | --- |
| N[C@H]1C(O)O[C@H](CO)[C@@H](O)[C@@H]1O (stereo partly shown) [glucosamine] | no change | poor therapeutic effect | no clear difference | no significant difference | – | – |
| C=CC[C@@H]1/C=C(\C)C[C@H](C)C[C@H](OC)[C@H]2O[C@@](O)(C(=O)C(=O)N3CCCC[C@H]3C(=O)O[C@H](/C(C)=C/[C@@H]3CC[C@@H](O)[C@H](OC)C3)[C@H](C)[C@@H](O)CC1=O)[C@H](C)C[C@@H]2OC [tacrolimus] | – | – | no clear difference | – | suppressed an immune response | lower dose than cyclosporine by a factor of 10 |
